Tests used:
Assay in all cases: combination Emax (second highest fraction inhibited in the dose matrix, 72 h); higher = more inhibition; extreme values may be limits of the assay
[1] = test system: PC-14 (Lung Adenocarcinoma)
Method in brief: (§1)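 Cell lines in DMEM/F12 or RPMI with 10% FBS were plated in 1536-well plates, held 24 hours at 37°C, 5% CO2, then given two-drug dose matrices for 72 hours (DMSO typically 0.2%). Viability was read by CellTiter-Glo 2.0 luminescence and scaled as inhibition from 0 (vehicle wells) to 1 (blank wells). Combination Emax is the second-highest inhibition in the matrix; Bliss excess is observed combination effect minus expected EA + EB − EA·EB, EA and EB being single-agent effects.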

[2] = test system: NKM-1 (Acute Myeloid Leukemia)
Method in brief: as §1

ES-2 (Ovarian Carcinoma) = test system: ES-2 (Ovarian Carcinoma)
Method in brief: as §1

[3] = test system: COLO-684 (Endometrial Carcinoma)
Method in brief: as §1

[4] = test system: SJRH30 (Rhabdomyosarcoma)
Method in brief: as §1

[5] = test system: LAMA-84 (Chronic Myelogenous Leukemia)
Method in brief: as §1

[6] = test system: NCI-H1755 (Lung Adenocarcinoma)
Method in brief: as §1

HuO-3N1 (Osteosarcoma) = test system: HuO-3N1 (Osteosarcoma)
Method in brief: as §1

[7] = test system: OV-90 (Ovarian Carcinoma)
Method in brief: as §1

[8] = test system: NCI-H810 (Non-Small Cell Lung Carcinoma)
Method in brief: as §1

[9] = test system: KYSE-70 (Esophageal Squamous Cell Carcinoma)
Method in brief: as §1

[10] = test system: LOUCY (T-Lymphoblastic Leukemia)
Method in brief: as §1

[11] = test system: HCC-44 (Lung Adenocarcinoma)
Method in brief: as §1

[12] = test system: SW684 (Other Solid Carcinomas)
Method in brief: as §1

[13] = test system: EB-3 (Burkitt's Lymphoma)
Method in brief: as §1

[14] = test system: CML-T1 (Chronic Myelogenous Leukemia)
Method in brief: as §1

KYM-1 (Rhabdomyosarcoma) = test system: KYM-1 (Rhabdomyosarcoma)
Method in brief: as §1

[15] = test system: RMG-I (Ovarian Carcinoma)
Method in brief: as §1

[16] = test system: FLO-1 (Esophageal Adenocarcinoma)
Method in brief: as §1

[17] = test system: PANC-02-03 (Pancreatic Carcinoma)
Method in brief: as §1

CS(=O)(=O)CCNCc1ccc(-c2ccc3ncnc(Nc4ccc(OCc5cccc(F)c5)c(Cl)c4)c3c2)o1 [Lapatinib] + NC1(c2ccc(-c3nc4ccn5c(=O)[nH]nc5c4cc3-c3ccccc3)cc2)CCC1 [MK-2206] (first compound max 10 µM, 7x7, partner max 10 µM)
combination Emax [1]: 0.993 | combination Emax [2]: 0.94 | combination Emax (ES-2 (Ovarian Carcinoma)): 0.936 | combination Emax [3]: 0.893 | combination Emax [4]: 0.914 | combination Emax [5]: 0.642 | combination Emax [6]: 0.88 | combination Emax (HuO-3N1 (Osteosarcoma)): 0.869 | combination Emax [7]: 0.623 | combination Emax [8]: 0.389 | combination Emax [9]: 0.613 | combination Emax [10]: 0.912 | combination Emax [11]: 0.852 | combination Emax [12]: 0.686 | combination Emax [13]: 0.937 | combination Emax [14]: 0.948 | combination Emax (KYM-1 (Rhabdomyosarcoma)): 0.945 | combination Emax [15]: 0.679 | combination Emax [16]: 0.793 | combination Emax [17]: 0.643

— the supplement of paper PMC11061612
